Measurements from patent publication US20010041724A1, “METHOD FOR THE CONTROL OF FLEA BEETLES IN CANOLA” (priority 1998, published 2001).

Columns and labels:
canola = assay: Canola seed treatment, yield at end of growing season; type: in vivo; conditions: canola seed treated with acetamiprid; end of the growing season
[1] = system: Phyllotreta spp. (flea beetles); assay: Canola seed treatment, shot-hole damage assessment post-emergence; type: in vivo; conditions: 4, 7, 10 and 14 days post-emergence
Procedure: Acetamiprid is applied to canola seed at rates of 7.5, 10, and 12.5 grams of active ingredient per kg of seed. Imidacloprid is applied to canola seed at rate of 15 g/kg of seed. The seed is planted and allowed to grow. At 4, 7, 10 and 14 days post-emergence of the plant, damage is assessed for the plants by looking for shot-hole damage.

For `C/C(=N\C#N)N(C)Cc1ccc(Cl)nc1` [acetamiprid, (E)-N^1-[(6-chloro-3-pyridyl)methyl]-N^2-cyano-N^1-methylacetamidine], the “yield of plants grown from treated seed” value (canola) was “general yield increase”, the “control of shot-hole damage relative to imidacloprid” value ([1]; acetamiprid 7.5, 10 and 12.5 g a.i./kg canola seed vs imidacloprid 15 g/kg seed) was “substantially more control than imidacloprid” and the “control of shot-hole damage relative to two stage lindane+terbufos treatment” value ([1]; acetamiprid 7.5, 10 and 12.5 g a.i./kg canola seed) was “generally equivalent to the two stage lindane+terbufos treatment”.
